Laboratory results: patent US20030110574A1, “Use of optical brighteners from the class of the stilbene compounds as antimicrobially active substances” (priority 2000, published 2003)

System: bacterial mixture of Staphylococcus aureus ATCC 9144 and Escherichia coli NCTC 8196
Assay: Antimicrobial activity in agar plates after irradiation with xenon light, viable bacteria counted
Assay type: cell-based
Protocol: Determination of Antimicrobial Activity of Tinopal CBS-X after Irradiation with Light
The optical brightener of the formula [drawing 28]
is incorporated in agar plates and subsequently inoculated with bacteria and irradiated with xenon light for 10 minutes or 30 minutes.
The test is used to detect antimicrobial activity by comparison with unirradiated samples.
To this end, a 1.5% stock solution in DMSO is prepared.
0.5 and 0.1 ml of this solution are added to 15 ml of liquid agar (final concentration: 500 and 100 ppm).
After solidification and drying, a bacterial mixture of Staphylococcus aureus and Escherichia coli is plated out on the agar (final concentration cfu/ml:˜10^5). The plates are fixed on cotton by means of double sided Scotch tape and are irradiated with a xenon lamp for 10 or 30 minutes.
Unirradiated agar plattes including 100 and 500 ppm of Tinopal CBS-X and agar plates without Tinopal are incubated as controls.
All plates were incubated at 37° C. for about 48 hours. After incubation, viable bacteria are counted (see Table 1).
Staphylococcus aureus ATCC 9144
Escherichia coli NCTC 8196
Cultures 18 to 24 hours in casein soymeal peptone broth diluted 1:5000 (Staph.) and 1:10,000 (E. coli) and mixed together
The table reports the number of colony-forming units of bacteria after 10 minutes' and 30 minutes' irradiation.

O=S(=O)([O-])c1ccccc1C=Cc1ccc(-c2ccc(C=Cc3ccccc3S(=O)(=O)[O-])cc2)cc1.[Na+].[Na+] [Tinopal CBS-X]
number of colony-forming units of bacteria (100 ppm in agar, control not irradiated with xenon light (t: 0′)): 4.4 × 10^4 (t: 0′) colony-forming units
number of colony-forming units of bacteria (100 ppm in agar, irradiated with xenon light, 10 minutes, incubated 37° C. about 48 hours): 2.3 × 10^4 colony-forming units
number of colony-forming units of bacteria (100 ppm in agar, irradiated with xenon light, 30 minutes, incubated 37° C. about 48 hours): 5.1 × 10^2 colony-forming units
reduction of the microorganisms compared with unirradiated plates and plates without Tinopal CBS-X (100 ppm or 500 ppm in agar nutrient medium, 30 minutes' irradiation with a xenon lamp): effective to substantially reduce the microorganisms
number of colony-forming units of bacteria (500 ppm in agar, control not irradiated with xenon light (t: 0′)): 4.3 × 10^4 (t: 0′) colony-forming units
number of colony-forming units of bacteria (500 ppm in agar, irradiated with xenon light, 10 minutes, incubated 37° C. about 48 hours): 3.0 × 10^4 colony-forming units
number of colony-forming units of bacteria (500 ppm in agar, irradiated with xenon light, 30 minutes, incubated 37° C. about 48 hours): 1.5 × 10^2 colony-forming units
